# In patent US10597388B2, “Pyridazinone herbicides” (FMC CORPORATION, priority 2014, dated 2020):
# Key:
# Assay in all cases: Test D controlled growth environment herbicide test, pre- and postemergence
# Assay type in all cases: in vivo
# [1] = test system: speedwell (bird's-eye speedwell, Veronica persica)
# Procedure, shortened: (§1)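 Pre-emergence: seeds sown in silt loam soil were sprayed with compound in a non-phytotoxic solvent mix containing surfactant. Post-emergence: plants at 2 to 18 cm (1- to 4-leaf stage) in peat moss/vermiculite medium got the same formulation. Visual 0–100 rating versus controls after 14 to 21 d.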
# [2] = test system: barley, spring (spring barley, Hordeum vulgare)
# Procedure, shortened: as §1
# [3] = test system: chamomile (scentless chamomile, Matricaria inodora)
# Procedure, shortened: as §1
# [4] = test system: bromegrass, downy (downy bromegrass, Bromus tectorum)
# Procedure, shortened: as §1
# kochia (Kochia scoparia) = test system: kochia (Kochia scoparia)
# Procedure, shortened: as §1
# [5] = test system: galium (catchweed bedstraw, Galium aparine)
# Procedure, shortened: as §1
# [6] = test system: barley, winter (winter barley, Hordeum vulgare)
# Procedure, shortened: as §1
# [7] = test system: foxtail, green (green foxtail, Setaria viridis)
# Procedure, shortened: as §1
# [8] = test system: mustard, wild (wild mustard, Sinapis arvensis)
# Procedure, shortened: as §1
# [9] = test system: oat, wild (wild oat, Avena fatua)
# Procedure, shortened: as §1
# [10] = test system: canarygrass (Phalaris minor)
# Procedure, shortened: as §1
# [11] = test system: bluegrass (annual bluegrass, Poa annua)
# Procedure, shortened: as §1
# [12] = test system: lambsquarters (Chenopodium album)
# Procedure, shortened: as §1
# [13] = Postemergence, 31 g ai/ha, scale 0 to 100 (0 no effect, 100 complete control)
# [14] = Postemergence, 125 g ai/ha, visual rating on scale 0 (no effect) to 100 (complete control), 14 to 21 d
# [15] = Postemergence, 250 g ai/ha, scale 0 to 100 (0 no effect, 100 complete control)
# [16] = Preemergence, 62 g ai/ha, scale 0 to 100 (0 no effect, 100 complete control)
# [17] = Preemergence, 125 g ai/ha, scale 0 to 100 (0 no effect, 100 complete control)
# [18] = Preemergence, 250 g ai/ha, scale 0 to 100 (0 no effect, 100 complete control)
# [19] = postemergence, 62 g ai/ha, scale 0 to 100, 0 no effect, 100 complete control
compound,measurement,setting,value
CC(=O)Oc1c(C)nn(C)c(=O)c1-c1c(C)sc2ccc(C)cc12 [Compound 25],Speedwell plant response rating,[1]; [13],10
same,"Plant response rating, Speedwell",[1]; [14],25
same,"Plant response rating, Speedwell",[1]; [15],80
same,"Plant response rating (scale of 0 to 100), Speedwell","[1]; Preemergence, 31 g ai/ha",35
same,"Plant response rating, Speedwell",[1]; [16],80
same,"Plant response rating, Speedwell",[1]; [17],95
same,"Plant response rating, Speedwell",[1]; [18],100
same,"Plant response rating, Speedwell",[1]; [19],15
same,"Plant response rating, Barley, Spring",[2]; [13],0
same,"Plant response rating, Barley, Spring",[2]; [14],0
same,"Plant response rating, Barley, Spring",[2]; [15],10
same,"Plant response rating (scale of 0 to 100), Barley, Spring","[2]; Preemergence, 31 g ai/ha",0
same,"Plant response rating, Barley, Spring",[2]; [16],0
same,"Plant response rating, Barley, Spring",[2]; [17],0
same,"Barley, Spring plant response rating",[2]; [18],0
same,"Plant response rating, Barley, Spring",[2]; [19],0
same,Chamomile plant response rating,[3]; [13],75
same,"Plant response rating, Chamomile",[3]; [14],100
same,"Plant response rating, Chamomile",[3]; [15],100
same,"Plant response rating (scale of 0 to 100), Chamomile","[3]; Preemergence, 31 g ai/ha",100
same,"Plant response rating, Chamomile",[3]; [16],100
same,"Plant response rating, Chamomile",[3]; [17],100
same,"Plant response rating, Chamomile",[3]; [18],95
same,"Plant response rating, Chamomile",[3]; [19],95
same,"Bromegrass, Downy plant response rating",[4]; [13],5
same,"Plant response rating, Bromegrass, Downy",[4]; [14],50
same,"Plant response rating, Bromegrass, Downy",[4]; [15],65
same,"Plant response rating (scale of 0 to 100), Bromegrass, Downy","[4]; Preemergence, 31 g ai/ha",40
same,"Plant response rating, Bromegrass, Downy",[4]; [16],65
same,"Plant response rating, Bromegrass, Downy",[4]; [17],80
same,"Plant response rating, Bromegrass, Downy",[4]; [18],85
same,"Plant response rating, Bromegrass, Downy",[4]; [19],25
same,Kochia plant response rating,kochia (Kochia scoparia); [13],90
same,"Plant response rating, Kochia",kochia (Kochia scoparia); [14],100
same,"Plant response rating, Kochia",kochia (Kochia scoparia); [15],100
same,"Plant response rating (scale of 0 to 100), Kochia","kochia (Kochia scoparia); Preemergence, 31 g ai/ha",0
same,"Plant response rating, Kochia",kochia (Kochia scoparia); [16],10
same,"Plant response rating, Kochia",kochia (Kochia scoparia); [17],40
same,"Plant response rating, Kochia",kochia (Kochia scoparia); [18],100
same,"Plant response rating, Kochia",kochia (Kochia scoparia); [19],95
same,Galium plant response rating,[5]; [13],100
same,"Plant response rating, Galium",[5]; [14],100
same,"Plant response rating, Galium",[5]; [15],100
same,"Plant response rating (scale of 0 to 100), Galium","[5]; Preemergence, 31 g ai/ha",70
same,"Plant response rating, Galium",[5]; [16],90
same,"Plant response rating, Galium",[5]; [17],95
same,"Plant response rating, Galium",[5]; [18],100
same,"Plant response rating, Galium",[5]; [19],100
same,"Plant response rating, Barley, Winter",[6]; [13],0
same,"Plant response rating, Barley, Winter",[6]; [14],0
same,"Plant response rating, Barley, Winter",[6]; [15],10
same,"Plant response rating (scale of 0 to 100), Barley, Winter","[6]; Preemergence, 31 g ai/ha",0
same,"Plant response rating, Barley, Winter",[6]; [16],0
same,"Plant response rating, Barley, Winter",[6]; [17],5
same,"Barley, Winter plant response rating",[6]; [18],20
same,"Plant response rating, Barley, Winter",[6]; [19],0
same,"Foxtail, Green plant response rating",[7]; [13],60
same,"Plant response rating, Foxtail, Green",[7]; [14],70
same,"Plant response rating, Foxtail, Green",[7]; [15],75
same,"Plant response rating (scale of 0 to 100), Foxtail, Green","[7]; Preemergence, 31 g ai/ha",35
same,"Plant response rating, Foxtail, Green",[7]; [16],90
same,"Plant response rating, Foxtail, Green",[7]; [17],95
same,"Plant response rating, Foxtail, Green",[7]; [18],100
same,"Plant response rating, Foxtail, Green",[7]; [19],65
same,"Mustard, Wild plant response rating",[8]; [13],20
same,"Plant response rating, Mustard, Wild",[8]; [14],70
same,"Plant response rating, Mustard, Wild",[8]; [15],85
same,"Plant response rating (scale of 0 to 100), Mustard, Wild","[8]; Preemergence, 31 g ai/ha",0
same,"Plant response rating, Mustard, Wild",[8]; [16],0
same,"Plant response rating, Mustard, Wild",[8]; [17],20
same,"Plant response rating, Mustard, Wild",[8]; [18],60
same,"Plant response rating, Mustard, Wild",[8]; [19],40
same,"Oat, Wild plant response rating",[9]; [13],75
same,"Plant response rating, Oat, Wild",[9]; [14],90
same,"Plant response rating, Oat, Wild",[9]; [15],90
same,"Plant response rating (scale of 0 to 100), Oat, Wild","[9]; Preemergence, 31 g ai/ha",85
same,"Plant response rating, Oat, Wild",[9]; [16],90
same,"Plant response rating, Oat, Wild",[9]; [17],95
same,"Plant response rating, Oat, Wild",[9]; [18],100
same,"Plant response rating, Oat, Wild",[9]; [19],80
same,Canarygrass plant response rating,[10]; [13],70
same,"Plant response rating, Canarygrass",[10]; [14],80
same,"Plant response rating, Canarygrass",[10]; [15],85
same,"Plant response rating (scale of 0 to 100), Canarygrass","[10]; Preemergence, 31 g ai/ha",80
same,"Plant response rating, Canarygrass",[10]; [16],80
same,"Plant response rating, Canarygrass",[10]; [17],95
same,"Plant response rating, Canarygrass",[10]; [18],100
same,"Plant response rating, Canarygrass",[10]; [19],80
same,Bluegrass plant response rating,[11]; [13],10
same,"Plant response rating, Bluegrass",[11]; [14],30
same,"Plant response rating, Bluegrass",[11]; [15],40
same,"Plant response rating (scale of 0 to 100), Bluegrass","[11]; Preemergence, 31 g ai/ha",25
same,"Plant response rating, Bluegrass",[11]; [16],35
same,"Plant response rating, Bluegrass",[11]; [17],40
same,Bluegrass plant response rating,[11]; [18],75
same,"Plant response rating, Bluegrass",[11]; [19],20
same,Lambsquarters plant response rating,[12]; [13],90
same,"Plant response rating, Lambsquarters",[12]; [14],90
same,"Plant response rating, Lambsquarters",[12]; [15],95
same,"Plant response rating (scale of 0 to 100), Lambsquarters","[12]; Preemergence, 31 g ai/ha",80
same,"Plant response rating, Lambsquarters",[12]; [16],95
same,"Plant response rating, Lambsquarters",[12]; [17],98
same,"Plant response rating, Lambsquarters",[12]; [18],100
same,"Plant response rating, Lambsquarters",[12]; [19],90
